Values joined by “and” are separate entries in the source; they are usually repeats but may differ in a detail not shown here. Identical values can stand only once. Inconclusive results and toxic doses are left out.
Test system: L1210 leukemia ip in BDF1 mice, survival T/C
Experiment: NCI In Vivo Anticancer Drug Screen. Data for tumor model L1210 Leukemia (intraperitoneal) in B6D2F1 (BDF1) mice
Details: higher = longer survival
In short: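 Tumor cells were implanted, animals were treated, and survival was followed. The result divides the treated measurement by the vehicle-control measurement.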

SMILES: C[C@H](N)C(=O)N[C@@H]1[C@H]2C(=C(O)C[C@@H](O)[C@@H]2O)C(=O)O[C@@H]1C
- T/C (endpoint: mean survival time, dose: 16.0 mg/kg/injection, schedule: Q01DX Z (ip), vehicle: carboxymethylcellulose (CMC)): 100 % of control
- T/C (endpoint: mean survival time, dose: 31.0 mg/kg/injection, schedule: Q01DX Z (ip), vehicle: carboxymethylcellulose (CMC)): 97 % of control
- T/C (endpoint: mean survival time, dose: 37.5 mg/kg/injection, schedule: Q01DX010 (ip), vehicle: saline): 102 % of control and 104 % of control
- T/C (endpoint: mean survival time, dose: 50.0 mg/kg/injection, schedule: Q01DX001 (ip), vehicle: saline): 105 % of control
- T/C (endpoint: mean survival time, dose: 50.0 mg/kg/injection, schedule: Q#A X Z (ip), vehicle: saline): 120 % of control
- T/C (endpoint: mean survival time, dose: 62.0 mg/kg/injection, schedule: Q01DX Z (ip), vehicle: carboxymethylcellulose (CMC)): 112 % of control
- T/C (endpoint: mean survival time, dose: 75.0 mg/kg/injection, schedule: Q01DX010 (ip), vehicle: saline): 104 % of control
- T/C (endpoint: mean survival time, dose: 88.0 mg/kg/injection, schedule: Q01DX015 (ip), vehicle: saline): 118 % of control
- T/C (endpoint: mean survival time, dose: 100.0 mg/kg/injection, schedule: Q01DX001 (ip), vehicle: saline): 104 % of control
- T/C (endpoint: mean survival time, dose: 100.0 mg/kg/injection, schedule: Q01DX006 (iv), vehicle: saline): 101 % of control
- T/C (endpoint: mean survival time, dose: 100.0 mg/kg/injection, schedule: Q01DX Z (im), vehicle: saline): 98 % of control
- T/C (endpoint: mean survival time, dose: 100.0 mg/kg/injection, schedule: Q01DX Z (sc), vehicle: saline): 102 % of control
- T/C (endpoint: mean survival time, dose: 125.0 mg/kg/injection, schedule: Q01DX Z (ip), vehicle: carboxymethylcellulose (CMC)): 124 % of control
- T/C (endpoint: mean survival time, dose: 125.0 mg/kg/injection, schedule: Q01DX Z (ip), vehicle: saline): 116 % of control
- T/C (endpoint: mean survival time, dose: 130.0 mg/kg/injection, schedule: Q01DX015 (ip), vehicle: saline): 114 % of control
- T/C (endpoint: mean survival time, dose: 150.0 mg/kg/injection, schedule: Q01DX005 (ip), vehicle: saline): 104 % of control
- T/C (endpoint: mean survival time, dose: 150.0 mg/kg/injection, schedule: Q03HX016 (ip), vehicle: saline): 103 % of control
- T/C (endpoint: mean survival time, dose: 150.0 mg/kg/injection, schedule: Q08DX002 (ip), vehicle: saline): 116 % of control
- T/C (endpoint: mean survival time, dose: 200.0 mg/kg/injection, schedule: Q01DX001 (ip), vehicle: saline): 110 % of control
- T/C (endpoint: mean survival time, dose: 200.0 mg/kg/injection, schedule: Q01DX006 (iv), vehicle: saline): 104 % of control
- T/C (endpoint: mean survival time, dose: 200.0 mg/kg/injection, schedule: Q01DX015 (ip), vehicle: saline): 120 % of control
- T/C (endpoint: mean survival time, dose: 200.0 mg/kg/injection, schedule: Q01DX Z (im), vehicle: saline): 110 % of control
- T/C (endpoint: mean survival time, dose: 200.0 mg/kg/injection, schedule: Q01DX Z (sc), vehicle: saline): 116 % of control
- T/C (endpoint: mean survival time, dose: 268.0 mg/kg/injection, schedule: Q## X004 (ip), vehicle: saline): 108 % of control
- T/C (endpoint: mean survival time, dose: 300.0 mg/kg/injection, schedule: Q01DX001 (sc), vehicle: saline): 96 % of control
- T/C (endpoint: mean survival time, dose: 300.0 mg/kg/injection, schedule: Q01DX005 (ip), vehicle: saline): 116 % of control
- T/C (endpoint: mean survival time, dose: 300.0 mg/kg/injection, schedule: Q01DX009 (sc), vehicle: saline): 113 % of control
- T/C (endpoint: mean survival time, dose: 300.0 mg/kg/injection, schedule: Q01DX Z (ip), vehicle: saline): 160 % of control
- T/C (endpoint: mean survival time, dose: 300.0 mg/kg/injection, schedule: Q03HX016 (ip), vehicle: saline): 110 % of control
- T/C (endpoint: mean survival time, dose: 300.0 mg/kg/injection, schedule: Q03HX024 (ip), vehicle: saline): 109 % of control
- T/C (endpoint: mean survival time, dose: 300.0 mg/kg/injection, schedule: Q04DX003 (ip), vehicle: saline): 119 % of control
- T/C (endpoint: mean survival time, dose: 300.0 mg/kg/injection, schedule: Q08DX002 (ip), vehicle: saline): 111 % of control
- T/C (endpoint: mean survival time, dose: 320.0 mg/kg/injection, schedule: Q01DX015 (ip), vehicle: saline): 156 % of control and 174 % of control
- T/C (endpoint: mean survival time, dose: 333.0 mg/kg/injection, schedule: Q02DX004 (ip), vehicle: saline): 116 % of control
- T/C (endpoint: mean survival time, dose: 352.0 mg/kg/injection, schedule: Q## X032 (ip), vehicle: saline): 116 % of control
- T/C (endpoint: mean survival time, dose: 400.0 mg/kg/injection, schedule: Q01DX001 (ip), vehicle: saline): 105 % of control
- T/C (endpoint: mean survival time, dose: 400.0 mg/kg/injection, schedule: Q01DX006 (iv), vehicle: saline): 113 % of control
- T/C (endpoint: mean survival time, dose: 400.0 mg/kg/injection, schedule: Q01DX013 (ip), vehicle: saline): 178 % of control
- T/C (endpoint: mean survival time, dose: 400.0 mg/kg/injection, schedule: Q01DX Z (ip), vehicle: saline): 151 % of control
- T/C (endpoint: mean survival time, dose: 400.0 mg/kg/injection, schedule: Q01DX Z (oral), vehicle: saline): 104 % of control
- T/C (endpoint: mean survival time, dose: 400.0 mg/kg/injection, schedule: Q## X004 (ip), vehicle: saline): 113 % of control
- T/C (endpoint: mean survival time, dose: 450.0 mg/kg/injection, schedule: Q01DX015 (ip), vehicle: saline): 155 % of control
- T/C (endpoint: mean survival time, dose: 536.0 mg/kg/injection, schedule: Q## X032 (ip), vehicle: saline): 119 % of control and 120 % of control
- T/C (endpoint: mean survival time, dose: 600.0 mg/kg/injection, schedule: Q01DX001 (sc), vehicle: saline): 105 % of control
- T/C (endpoint: mean survival time, dose: 600.0 mg/kg/injection, schedule: Q01DX005 (ip), vehicle: saline): 118 % of control
- T/C (endpoint: mean survival time, dose: 600.0 mg/kg/injection, schedule: Q01DX009 (sc), vehicle: saline): 119 % of control
- T/C (endpoint: mean survival time, dose: 600.0 mg/kg/injection, schedule: Q03HX016 (ip), vehicle: saline): 110 % of control
- T/C (endpoint: mean survival time, dose: 600.0 mg/kg/injection, schedule: Q03HX024 (ip), vehicle: saline): 115 % of control
- T/C (endpoint: mean survival time, dose: 600.0 mg/kg/injection, schedule: Q04DX003 (ip), vehicle: saline): 119 % of control
- T/C (endpoint: mean survival time, dose: 600.0 mg/kg/injection, schedule: Q08DX002 (ip), vehicle: saline): 113 % of control
- T/C (endpoint: mean survival time, dose: 600.0 mg/kg/injection, schedule: Q## X004 (ip), vehicle: saline): 111 % of control
- T/C (endpoint: mean survival time, dose: 656.0 mg/kg/injection, schedule: Q01DX015 (ip), vehicle: carboxymethylcellulose (CMC)): 162 % of control
- T/C (endpoint: mean survival time, dose: 700.0 mg/kg/injection, schedule: Q01DX001 (ip), vehicle: saline): 110 % of control and 117 % of control
- T/C (endpoint: mean survival time, dose: 700.0 mg/kg/injection, schedule: Q07DX Z (ip), vehicle: saline): 114 % of control
- T/C (endpoint: mean survival time, dose: 800.0 mg/kg/injection, schedule: Q01DX Z (im), vehicle: saline): 176 % of control
- T/C (endpoint: mean survival time, dose: 800.0 mg/kg/injection, schedule: Q01DX Z (oral), vehicle: saline): 108 % of control
- T/C (endpoint: mean survival time, dose: 800.0 mg/kg/injection, schedule: Q01DX Z (sc), vehicle: saline): 174 % of control
- T/C (endpoint: mean survival time, dose: 800.0 mg/kg/injection, schedule: Q## X032 (ip), vehicle: saline): 117 % of control
- T/C (endpoint: mean survival time, dose: 900.0 mg/kg/injection, schedule: Q## X004 (ip), vehicle: saline): 122 % of control
- T/C (endpoint: mean survival time, dose: 1084.0 mg/kg/injection, schedule: Q01DX001 (ip), vehicle: saline): 94 % of control and 95 % of control
- T/C (endpoint: mean survival time, dose: 1200.0 mg/kg/injection, schedule: Q01DX001 (sc), vehicle: saline): 101 % of control
- T/C (endpoint: mean survival time, dose: 1200.0 mg/kg/injection, schedule: Q03HX016 (ip), vehicle: saline): 111 % of control
- T/C (endpoint: mean survival time, dose: 1200.0 mg/kg/injection, schedule: Q## X032 (ip), vehicle: saline): 120 % of control and 121 % of control
- T/C (endpoint: mean survival time, dose: 1300.0 mg/kg/injection, schedule: Q01DX001 (ip), vehicle: saline): 106 % of control
- T/C (endpoint: mean survival time, dose: 1350.0 mg/kg/injection, schedule: Q## X004 (ip), vehicle: saline): 122 % of control
- T/C (endpoint: mean survival time, dose: 1400.0 mg/kg/injection, schedule: Q01DX001 (ip), vehicle: saline): 106 % of control and 119 % of control
- T/C (endpoint: mean survival time, dose: 1400.0 mg/kg/injection, schedule: Q07DX Z (ip), vehicle: saline): 120 % of control
- T/C (endpoint: mean survival time, dose: 1491.0 mg/kg/injection, schedule: Q01DX015 (ip), vehicle: carboxymethylcellulose (CMC)): 155 % of control
- T/C (endpoint: mean survival time, dose: 1600.0 mg/kg/injection, schedule: Q01DX Z (im), vehicle: saline): 160 % of control
- T/C (endpoint: mean survival time, dose: 1600.0 mg/kg/injection, schedule: Q01DX Z (oral), vehicle: saline): 106 % of control
- T/C (endpoint: mean survival time, dose: 1650.0 mg/kg/injection, schedule: Q01DX001 (ip), vehicle: saline): 96 % of control and 97 % of control
- T/C (endpoint: mean survival time, dose: 1687.0 mg/kg/injection, schedule: Q02DX004 (ip), vehicle: saline): 166 % of control
- T/C (endpoint: mean survival time, dose: 2000.0 mg/kg/injection, schedule: Q01DX001 (ip), vehicle: saline): 120 % of control
- T/C (endpoint: mean survival time, dose: 2024.0 mg/kg/injection, schedule: Q01DX001 (ip), vehicle: saline): 115 % of control
- T/C (endpoint: mean survival time, dose: 2237.0 mg/kg/injection, schedule: Q01DX015 (ip), vehicle: carboxymethylcellulose (CMC)): 108 % of control
- T/C (endpoint: mean survival time, dose: 2400.0 mg/kg/injection, schedule: Q01DX001 (sc), vehicle: saline): 104 % of control
- T/C (endpoint: mean survival time, dose: 2400.0 mg/kg/injection, schedule: Q03HX016 (ip), vehicle: saline): 119 % of control
- T/C (endpoint: mean survival time, dose: 2400.0 mg/kg/injection, schedule: Q08DX002 (ip), vehicle: saline): 122 % of control
- T/C (endpoint: mean survival time, dose: 2464.0 mg/kg/injection, schedule: Q01DX001 (ip), vehicle: saline): 100 % of control
- T/C (endpoint: mean survival time, dose: 2800.0 mg/kg/injection, schedule: Q01DX001 (ip), vehicle: saline): 123 % of control
- T/C (endpoint: mean survival time, dose: 2800.0 mg/kg/injection, schedule: Q07DX Z (ip), vehicle: saline): 119 % of control
- T/C (endpoint: mean survival time, dose: 3000.0 mg/kg/injection, schedule: Q01DX001 (ip), vehicle: saline): 115 % of control
- T/C (endpoint: mean survival time, dose: 3200.0 mg/kg/injection, schedule: Q01DX Z (oral), vehicle: saline): 108 % of control
- T/C (endpoint: median survival time, dose: 75.0 mg/kg/injection, schedule: Q01DX009 (ip), vehicle: saline): 113 % of control
- T/C (endpoint: median survival time, dose: 133.0 mg/kg/injection, schedule: Q04DX003 (ip), vehicle: saline): 97 % of control
- T/C (endpoint: median survival time, dose: 266.0 mg/kg/injection, schedule: Q04DX003 (ip), vehicle: saline): 101 % of control
- T/C (endpoint: median survival time, dose: 532.0 mg/kg/injection, schedule: Q04DX003 (ip), vehicle: saline): 110 % of control
- T/C (endpoint: median survival time, dose: 600.0 mg/kg/injection, schedule: Q01DX009 (ip), vehicle: saline): 160 % of control
- T/C (endpoint: median survival time, dose: 1200.0 mg/kg/injection, schedule: Q01DX009 (ip), vehicle: saline): 180 % of control
